Test results: patent US20260176289A1, “SMALL MOLECULE INHIBITORS OF KRAS PROTEINS” (Merck Sharp & Dohme LLC, priority 2022, published 2026)
Like-named read-outs stand apart in the source and are kept apart here.

Assays:
[1] = system: AsPC-1 cells; assay: Cellular phospho-ERK assay, AsPC-1 cells (homozygous KRAS-G12D); format: cell-based; conditions: Homo sapiens, ASPC1, 2 h, read-out: AsPC1 pERK IC50
Method in brief: (§1)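 Cells seeded at 10,000-15,000 per well were incubated overnight, then exposed to compound for 2 hours at 37 °C in a 10-point, 1:3 series topping at 30 μM final. Lysates were assayed by Alpha SureFire Ultra multiplex for p-ERK and total ERK; IC50 came from a 4-parameter logistic fit of their ratio.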

[2] = system: MKN-1 cells; assay: Cellular phospho-ERK assay, MKN-1 cells (amplified wild-type KRAS); format: cell-based; conditions: Homo sapiens, read-out: MKN1 pERK IC50
Method in brief: as §1

[3] = target: HRAS (Homo sapiens, UniProt P01112); assay: SOS-catalyzed nucleotide exchange assay (Procedure A, TR-FRET), HRAS; format: biochemical; conditions: read-out: HRAS GNE IC50
Text: Procedure for SOS-Catalyzed Nucleotide Exchange Assay for KRAS-WT, G12C/D/V, G13D, HRAS, and NRAS (Procedure A)
Recombinant KRAS-G12C protein used in this assay has an additional triple mutation (C51S/C80L/C118S). Whereas KRAS-WT, G12D/V, G13D, HRAS and NRAS are in context of their WT protein sequence background. Specifically, the SOS-catalyzed nucleotide exchange assay utilizes a preformed TR-FRET complex containing a specific biotinylated RAS protein (KRAS-WT, G12C/V/D, G13D, HRAS, NRAS; described above) with Bodipy-GDP, and Terbium-streptavidin. Compounds are preincubated with this complex for 60 minutes. Subsequently, recombinant human SOS protein and unlabeled GTP are added to initiate the exchange reaction. Small molecule inhibitors stabilize the Bodipy-GDP complex whereas the untreated protein rapidly exchanges Bodipy-GDP for unlabeled GTP resulting in reduced TR-FRET signal.
To assemble the preformed TR-FRET complexes, each biotinylated RAS protein is diluted to 2 μM in an EDTA Buffer (20 mM HEPES pH 7.5, 50 mM sodium chloride, 10 mM EDTA, and 0.01% Tween) and incubated at room temperature for one hour. This mixture is then further diluted to 90 nM in an Assay Buffer (20 mM HEPES pH 7.5, 150 mM sodium chloride, 10 mM magnesium chloride, and 0.005% Tween) containing 15 nM of Terbium-Streptavidin (Invitrogen, catalog #PV3577) and 900 nM of Bodipy-GDP (Invitrogen, catalog #G22360) and incubated at room temperature for six hours. It should be noted that this preformed TR-FRET complex for each of the RAS protein were made ahead of time, aliquoted and stored at −80° C. until the day of the experiment.
Each test compound (10 mM stock in DMSO) is diluted in DMSO to make a final-10-point, 3-fold dilution and is acoustically dispensed into a 384-well assay plate (Corning, catalog #3820) using an Echo 550 (Labcyte). Each well of the assay plate receives 3 μL of a specific 3×RAS preformed TR-FRET complex and 3 μL of Assay Buffer and is incubated at room temperature for 60 minutes (preincubation time). Each well then receives 3 μL of 3×recombinant human SOS protein and GTP (Sigma, G8877) in Assay Buffer and is incubated at room temperature for 30 minutes (G13D), 60 minutes (KRAS WT/G12C/D, H/NRAS) or 90 minutes for G12V. The final reaction in each well of 9 μL consists of 3 mM GTP, specific Ras and SOS proteins in the following concentrations: KRAS-G12C/SOS=3 nM/40 nM, KRAS-WT and G12D/SOS=1 nM/40 nM, KRAS-G12V/SOS=1.25 nM/160 nM. KRAS-G13D/SOS=1.25 nM/0 nM, HRAS and NRAS=1.25 nM/40 nM.
The time-resolved fluorescence resonance energy transfer (TR-FRET) signal is measured on an Envision (PerkinElmer) plate reader: Excitation filter=340 nm; emission 1=495 nm; emission2=520 nm; dichroic mirror=D400/D505; delay time=[…]. The signal of each well is determined as the ratio of the emission at 520 nm to that at 495 nm. Percent effect of each well is determined after normalization to control wells containing DMSO (no effect) or a saturating concentration of inhibitor (max effect). The apparent effect as a function of compound concentration is fit to a four-parameter logistic equation.

[4] = system: SW620 cells; assay: Cellular phospho-ERK assay, SW620 cells (homozygous KRAS-G12V); format: cell-based; conditions: Homo sapiens, read-out: SW620 pERK IC50
Method in brief: as §1

[5] = target: KRAS-G12D (Homo sapiens, UniProt P01116, G12D); assay: SOS-catalyzed nucleotide exchange assay (Procedure A, TR-FRET), KRAS-G12D; format: biochemical; conditions: nucleotide exchange, read-out: KRAS G12D GNE IC50
Method in brief: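 Signal ratio (520/495 nm, excitation 340 nm) reports Bodipy-GDP retention on biotinylated RAS after SOS-catalyzed exchange with 3 mM GTP. SOS was 40 nM, except 160 nM for G12V. Room-temperature exchange lasted 60 min (90 min for G12V), following a 60 min compound preincubation.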

[6] = target: KRAS-G12C (C51S/C80L/C118S) (Homo sapiens, UniProt P01116, C118S/C51S/C80L/G12C); assay: SOS-catalyzed nucleotide exchange assay (Procedure A, TR-FRET), KRAS-G12C; format: biochemical; conditions: nucleotide exchange, Procedure A; read-out: KRAS G12C GNE IC50
Method in brief: (§2)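 RAS (G12C carries C51S/C80L/C118S) loaded with Bodipy-GDP, complexed with Tb-streptavidin; cpd 60 min RT; + SOS/3 mM GTP. G12C 3/40 nM, WT 1/40, NRAS 1.25/40 nM RAS/SOS, 60 min; G12V 1.25/160 nM, 90 min. Normalized to DMSO and saturating inhibitor; 4PL fit.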

[7] = target: KRAS-G13D (Homo sapiens, UniProt P01116, G13D); assay: SOS-catalyzed nucleotide exchange assay (Procedure A, TR-FRET), KRAS-G13D; format: biochemical; conditions: nucleotide exchange, Procedure A; read-out: KRAS G13D GNE IC50
[8] = target: KRAS-G12V (Homo sapiens, UniProt P01116, G12V); assay: SOS-catalyzed nucleotide exchange assay (Procedure A, TR-FRET), KRAS-G12V; format: biochemical; conditions: nucleotide exchange, read-out: KRAS G12V GNE IC50
Method in brief: as §2

[9] = target: KRAS-WT (Homo sapiens, UniProt P01116); assay: SOS-catalyzed nucleotide exchange assay (Procedure A, TR-FRET), KRAS-WT; format: biochemical; conditions: nucleotide exchange, read-out: KRAS WT GNE IC50
Method in brief: as §2

[10] = SW-620, 2 hours compound incubation

Sequence of KRAS-WT (P01116 with tags, fused parts or gaps isoform P01116-2): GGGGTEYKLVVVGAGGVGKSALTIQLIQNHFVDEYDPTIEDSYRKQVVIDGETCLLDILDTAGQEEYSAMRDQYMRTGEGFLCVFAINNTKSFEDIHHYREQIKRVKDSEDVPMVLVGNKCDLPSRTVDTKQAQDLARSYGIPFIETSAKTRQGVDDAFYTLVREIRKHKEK
Sequence of HRAS (P01112 with tags, fused parts or gaps): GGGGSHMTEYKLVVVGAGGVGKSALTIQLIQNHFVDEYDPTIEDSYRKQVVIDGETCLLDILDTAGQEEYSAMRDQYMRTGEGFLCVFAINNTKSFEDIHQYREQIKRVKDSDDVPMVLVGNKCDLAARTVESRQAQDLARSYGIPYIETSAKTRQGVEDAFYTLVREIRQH
Sequence of KRAS-G13D (P01116 with tags, fused parts or gaps isoform P01116-2 G13D): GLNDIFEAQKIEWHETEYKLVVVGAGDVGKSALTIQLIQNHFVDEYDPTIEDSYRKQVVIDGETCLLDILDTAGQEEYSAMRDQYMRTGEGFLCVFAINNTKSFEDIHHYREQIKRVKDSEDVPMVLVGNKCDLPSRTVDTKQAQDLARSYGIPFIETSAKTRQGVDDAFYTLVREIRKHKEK
Sequence of KRAS-G12D (P01116 with tags, fused parts or gaps isoform P01116-2 G12D): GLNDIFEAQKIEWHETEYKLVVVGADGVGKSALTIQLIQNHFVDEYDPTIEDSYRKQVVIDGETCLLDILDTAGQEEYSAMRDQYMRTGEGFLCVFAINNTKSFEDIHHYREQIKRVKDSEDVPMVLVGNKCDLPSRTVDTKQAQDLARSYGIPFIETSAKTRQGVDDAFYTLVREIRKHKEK
Sequence of KRAS-G12V (P01116 with tags, fused parts or gaps isoform P01116-2 G12V): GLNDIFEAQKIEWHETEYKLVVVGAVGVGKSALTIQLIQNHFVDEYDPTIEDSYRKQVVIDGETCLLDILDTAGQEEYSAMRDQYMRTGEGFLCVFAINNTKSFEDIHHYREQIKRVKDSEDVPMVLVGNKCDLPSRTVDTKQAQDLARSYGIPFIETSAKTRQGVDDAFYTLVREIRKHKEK
Sequence of KRAS-G12C (C51S/C80L/C118S) (P01116 with tags, fused parts or gaps isoform P01116-2 G12C/C51S/C80L/C118S): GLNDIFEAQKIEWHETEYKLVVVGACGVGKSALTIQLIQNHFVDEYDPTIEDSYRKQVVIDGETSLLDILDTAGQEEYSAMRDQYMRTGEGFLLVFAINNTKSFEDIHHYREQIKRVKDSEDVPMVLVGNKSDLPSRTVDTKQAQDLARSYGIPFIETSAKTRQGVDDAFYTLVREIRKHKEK

SMILES | IC50 ([1]; 2 hours compound incubation) | IC50 ([2]; 2 hours compound incubation) | IC50 [3] | IC50 [4, 10] | IC50 [5] | IC50 [6] | IC50 [7] | IC50 [8] | IC50 [9] | IC50 ([1]; KRAS-G12D, 2 hours) | IC50 ([2]; amplified wild-type KRAS, 2 hours) | IC50 ([4]; SW-620, KRAS-G12V, 2 hours)
C[C@@]1(O)COCCN(c2nc(OC[C@]3(CN4CC(CF)C4)CC3(F)F)nc3sc4c(-c5c(C6(F)CC6)c(Cl)cc6[nH]ncc56)nccc4c23)C1 [Ex-266, (6S)-4-(8-(6-chloro-5-(1-fluorocyclopropyl)-1H-indazol-4-yl)-2-(((R)-2,2-difluoro-1-((3-(fluoromethyl)azetidin-1-yl)methyl)cyclopropyl)metho-xy)pyrido[4′,3′:4,5]thieno[2,3-d]pyrimidin-4-yl)-6-methyl-1,4-oxazepan-6-ol] | 89.7 nM | 47.3 nM | 1290 nM | 39.2 nM | 3.75 nM | 68.8 nM | 28.2 nM | 21.6 nM | 23.4 nM | – | – | –
C[C@@]1(O)COCCN(c2nc(OC[C@]3(CN4CC5(CC(F)C5)C4)CC3(F)F)nc3sc4c(-c5c(C6CC6)c(Cl)cc6[nH]ncc56)nccc4c23)C1 [Ex-230] | 51.5 nM | 52.7 nM | 1640 nM | 23.2 nM | 16 nM | 21.1 nM | 13.9 nM | 70.1 nM | 88.5 nM | – | – | –
C[C@@]1(O)COCCN(c2nc(OC[C@]3(CN4C[C@H]5CCCO[C@H]5C4)CC3(F)F)nc3sc4c(-c5c(C6(F)CC6)c(Cl)cc6[nH]ncc56)nccc4c23)C1 [Ex-255, (6S)-4-(8-(6-chloro-5-(1-fluorocyclopropyl)-1H-indazol-4-yl)-2-(((R)-2,2-difluoro-1-(((4aR,7aR)-hexahydropyrano[2,3-c]pyrrol-6(2H)-yl)methyl)cyclopropyl)metho-xy)pyrido[4′,3′:4,5]thieno[2,3-d]pyrimidin-4-yl)-6-methyl-1,4-oxazepan-6-o1] | 93.3 nM | 25.3 nM | 1390 nM | 40.1 nM | 4.79 nM | 86.7 nM | 12.8 nM | 14.9 nM | 18.5 nM | – | – | –
C[C@H](N(C)C)[C@@]1(COc2nc(N3CCOC[C@@](C)(O)C3)c3c(n2)sc2c(-c4c(C5CC5)c(Cl)cc5[nH]ncc45)nccc23)CC1(F)F [Ex-215, (6S)-4-(8-(6-chloro-5-cyclopropyl-1H-indazol-4-yl)-2-(((R)-1-((S)-1-(dimethylamino)-ethyl)-2,2-difluoro-cyclopropyl)meth-oxy)pyrido[4′,3′: 4,5]thieno[2,3-d]pyrimidin-4-yl)-6-methyl-1,4-oxaze-pan-6-ol] | 55.9 nM | 32.6 nM | 1610 nM | 23 nM | 3.75 nM | 105 nM | 38.9 nM | 20.9 nM | 16 nM | – | – | –
C[C@@]1(O)COCCN(c2nc(OC[C@@]34CCCN3C[C@H](F)C4)nc3sc4c(-c5c(C6CC6)c(Cl)cc6[nH]ncc56)nncc4c23)C1 [Ex-280, (6S)-4-(8-(6-chloro-5-cyclopropyl-1H-indazol-4-yl)-2-(((2R,7aS)-2-fluorotetrahydro-1H-pyrrolizin-7a(5H)-yl)methoxy)pyrimi-do[5′,4′:4,5]thieno[2,3-d]pyridazin-4-yl)-6-methyl-1,4-oxazepan-6-ol] | – | – | 8660 nM | – | 4.55 nM | 61 nM | 4.89 nM | 12.4 nM | 9.47 nM | 78.2 nM | 62 nM | 106 nM

The next lines start with results.

IC50 ([1]; 2 hours compound incubation) | IC50 ([2]; 2 hours compound incubation) | IC50 [3] | IC50 [4, 10] | IC50 [5] | IC50 [6] | IC50 [7] | IC50 [8] | IC50 [9] | SMILES | IC50 ([1]; KRAS-G12D, 2 hours) | IC50 ([2]; amplified wild-type KRAS, 2 hours) | IC50 ([4]; SW-620, KRAS-G12V, 2 hours)
23.4 nM | 16.1 nM | 10300 nM | 8.1 nM | 3.28 nM | 23.3 nM | 10.1 nM | 4.82 nM | 5 nM | CCc1c(F)ccc2cc3[nH]ncc3c(-c3nccc4c3sc3nc(OC[C@@]56CCCN5C[C@H](F)C6)nc(N5CCOC[C@@](C)(O)C5)c34)c12 [Ex-167, (6S)-4-(8-(5-ethyl-6-fluoro-1H-benzo[f]indazol-4-yl)-2-(((2R,7aS)-2-fluorotetrahydro-1H-pyrrolizin-7a(5H)-yl)methoxy)pyrido[4′,3′:4,5]thieno[2,3-d]pyrimidin-4-yl)-6-methyl-1,4-oxazepan-6-ol] | – | – | –
5.76 nM | 14.6 nM | 1890 nM | 2.76 nM | 1.49 nM | 35.1 nM | 6.61 nM | 3.15 nM | 2.06 nM | C#Cc1c(F)sc2cc3[nH]ncc3c(-c3nccc4c3sc3nc(OC[C@@]56CCCN5C[C@H](F)C6)nc(N5CCOC[C@@](C)(O)C5)c34)c12 [Ex-164] | – | – | –
19.4 nM | 23.5 nM | 3310 nM | 9.81 nM | 2.72 nM | 19 nM | 5.48 nM | 11.9 nM | 5.37 nM | C=C1CN2CCC[C@@]2(COc2nc(N3CCOC[C@@](C)(O)C3)c3c(n2)sc2c(-c4c(C5CC5)c(Cl)cc5[nH]ncc45)nccc23)C1 [Ex-224, (6S)-4-(8-(6-chloro-5-cyclopropyl-1H-indazol-4-yl)-2-(((S)-2-methylene-tetrahydro-1H-pyrrolizin-7a(5H)-yl)methoxy)pyrido [4′,3′:4,5]thieno[2,3-d]pyrimidin-4-yl)-6-methyl-1,4-oxaze-pan-6-ol] | – | – | –
